Patent US8153424B2, “Method of in vitro differentiation of neural stem cells, motor neurons and dopamine neurons from primate embryonic stem cells” (Wisconsin Alumni Research Foundation, priority 2001, dated 2012)
“Also recorded” adds a separate entry of the source.

Key:
Format in all cases: cell-based, human
[1] = system: hESC-derived motor neurons; assay: Whole-cell patch-clamp of hESC-derived motor neurons, spontaneous synaptic currents; details: combination of D-AP5 (40 μM) and CNQX (20 μM)
[2] = system: hESC-derived neuroectodermal cells; assay: Motor neuron induction in adherent culture, immunocytochemistry and HB9 cell counting
Procedure: hESCs (lines H1 and H9, passages 19 to 42) were cultured and passaged weekly on a feeder layer of irradiated embryonic mouse fibroblasts as described (Thomson et al., supra, 1998). The undifferentiated state of ESCs were confirmed by typical morphology and expression of Oct4 and SSEA4. For neuroectodermal differentiation, hESCs were aggregated for four days and then cultured on an adhesive plastic surface for ten days in F12/DMEM supplemented with N2, heparin (2 ng/ml), and FGF2 (20 ng/ml) or RA (Zhang et al., supra, 2001). […]
Primary antibodies used in this study included polyclonal antibodies against neuronal class III βIII-tubulin (Covance Research Products, Richmond, Calif., 1:2000), nestin (Chemicon, Temecula, Calif., 1:750), Sox1 (Chemicon, 1:1000), synapsin I (Calbiochem, Darmstadt, German, 1:500), ChAT (Chemicon, 1:50), and VAChT (Chemicon, 1:1000), Isl½ (S. Pfaff), Otx2 (F. Vaccarino), and Oig2 (M. Nakafuku). […] For identification of electrophysiologically recorded cells, biocytin (Molecular Probes) filled cells were labeled with streptavidin-FITC (sigma, 1:200) and stained for ChAT. […]
The population of HB9-expressing cells among total differentiated cells (Hoechst labeled) was counted by a person who was blind to experimental groups either manually using the Metamorph software (Universal Imaging Corporation, Downingtown, Pa.) or by stereological measurement. […]

[3] = system: SHH pathway; assay: RT-PCR of transcription factors in caudalized NE after 1 week of treatment
Procedure: Total RNA was extracted from motor neuron differentiation cultures using RNA STAT-60 (Tel-Test, Inc.; […] Carlsbad, Calif.) according to the manufacturer's protocol and was used as templates for the PCR reaction. PCR reaction was performed in a 15 μl mixture containing cDNA, primers and 1×PCR Master mix (Promega; Madison, Wis.). The following primers were used: Olig-2,[NT] ID NO:21), [NT] ID NO:22), 315 bp; […] ID NO:23), [NT] ID NO:24), 337 bp; […] ID NO:25), [NT] ID NO:26), 473 bp; […] ID NO:27), [NT] ID NO:28), 459 bp; […] ID NO:31), [NT] ID NO:32), 335 bp; GAPDH, [NT] ID NO:1), [NT] ID NO:2), 450 bp; […] ID NO:33), [NT] ID NO:34), 269 bp; […] ID NO:35), [NT] ID NO:36), 399 bp; […] ID NO:37), [NT] ID NO:38), 352 bp; and Gli1, [NT] ID NO:39), [NT] ID NO:40), 185 bp.

[4] = system: hESC-derived neuroepithelial cells; assay: Ventral spinal progenitor and motor neuron differentiation in suspension culture, immunocytochemistry, cell counting and FACS
Procedure: For motor neuron induction, hESC-derived neuroepithelial cells at day 10 were first treated with RA (0.1 μM) for caudalization in a neural medium, which consisted of DMEM/F12 (Gibco), N2 supplement, heparin (Sigma, 2 μg/ml) and cAMP (Sigma, 1 μM). One week later (day 17), the posteriorized neuroectodermal cells were isolated, and suspended in the same neural medium in the presence of RA (0.1 μM) and SHH (100-200 ng/ml; R&D, 1845-SH) for one week. After that (day 24), brain-derived neurotrophic factor (BDNF), glial-derived neurotrophic factor (GDNF) and insulin-like growth factor-1 (IGF1) (10 ng/ml, PeproTech Inc.) were added to the culture. Purmorphamine (Calbiochem) at different concentrations (0.5, 1, 2 and 5 μM) was used instead of SHH in some experiments (see Results).
Immunohistochemical staining was performed according to Zhang et al., (Zhang et al. (2001), supra). Primary antibodies used in this study included polyclonal antibodies against Olig2 (1:500, Santa Cruz), Ki67 (1:200, Zymed), Otx2 (1:2000, Chemicon) and ChAT (1:200, Chemicon). Antibodies against MNR2 or HB9 (81.5C10) (1:50), Pax7 (1:2000), Nkx2.2 (1:50) and Hoxb4 (1:50) were purchased from Developmental Studies Hybridoma Bank (DSHB, Iowa City, Iowa). Polyclonal Phox2b and Irx3 antibodies were kindly provided by Dr. Jean-François Brunet (CNRS; École Normale Supérieure, Paris) and Dr. Thomas Jessell (Columbia University; New York, N.Y.), respectively. Images were collected using a Spot digital camera mounted onto a Nikon fluorescent microscope 600 (Fryer Inc.; Huntley, Ill.) or a confocal microscope (Nikon; Tokyo, Japan).
The population of Olig2 or HB9-expressing cells among total differentiated cells (Hoechst labeled) was counted in two ways, as previously described (Li et al. (2005), supra). Six to twelve clusters in each group were counted and data were expressed as Mean ± SEM. Differences between groups were compared by ANOVA test, and the statistical significance was defined as two-sided (p=0.05).
Cells were harvested using Accutase® (Innovative Cell), gently dissociated to single cells and washed with a FACS buffer (PBS, 0.1% NaN3, 2% donkey serum). After being fixed and permeabilized with ice cold 0.1% paraformaldehyde for 10 minutes and with 90% methanol for 30 minutes, cells Were then incubated in primary antibody (Olig2, goat IgG, 1:500) or a goat IgG control at […]. Cells were then washed and incubated with a corresponding secondary antibody, such as Alexa 488 conjugated, donkey, anti-goat IgG, for 2 hours followed by washing steps. Cells were analyzed by a Becton Dickinson FACSCaliber and analyzed with CellQuest Pro (BD Biosciences).

[5] = system: hESC-derived neural precursors; assay: BrdU incorporation by dissociated ES cell-derived neural precursors; details: FGF2 20 ng/ml, EGF 20 ng/ml, LIF 5 ng/ml; each alone
Procedure: Histochemical and immunohistochemical staining. To better visualize the rosette formations, cultures with rosettes were rinsed with PBS and fixed in 4% paraformaldehyde and 0.25% glutaraldehyde for 1 hour. The fixed cells were then processed for embedding in plastic resin as described (Zhang et al., supra, 1999). The cultured cells were then sectioned in 1-μm thickness and stained with toluidine blue. For immunostaining, the coverslip cultures were immunostained with the following primary antibodies detected by appropriate fluorescent secondary antibodies detailed elsewhere (Zhang et al., supra, 2000; Zhang et al., supra, 1999): anti-nestin (polyclonal, gift of Dr. R. McKay of NINDS, 1:1,000); anti-polysialylated neuronal cell adhesion molecule (PSA-NCAM, mouse IgM, gift of Dr. G. Rougon of University of Marseille, France, 1:200); anti-Musashi-1 (rat IgG, gift of Dr. H. Okano, University of Tokyo, Japan, 1:500); anti-GFAP (polyclonal, Dako, 1:1,000); anti-human GFAP (Sternberg monoclonals, 1:10,000); O4 (mouse IgM, hybridoma supernatant, 1:50); anti-tyrosine hydroxylase (TH, Pel Freez, 1:500). The remaining antibodies were from Sigma: anti-βIII-tubulin (mouse IgG, 1:500); anti-neurofilament (NF) 68 (mouse IgG, 1:1,000); anti-NF 200 (polyclonal, 1:5,000); anti-MAP2ab (mouse IgG, 1:250); anti-γ-aminobutyric acid (GABA, polyclonal, 1:10,000); anti-glutamate (mouse IgG, 1:10,000). For bromodeoxyuridine (BrdU) incorporation, 4 coverslip cultures in each group were incubated with 2 μM of BrdU for sixteen hours before the cultures were fixed in 4% paraformaldehyde, denatured with 1N HCl and processed for immunolabeling and cell counting (Zhang et al., supra, 2000; Zhang et al., supra, 1999).

In the case of `N#Cc1cc2c(cc1[N+](=O)[O-])=NC(=O)C(=O)N=2` [CNQX, 6-cyano-7-nitroquinoxaline-2,3-dione], the “Effect on remaining inward (excitatory) synaptic currents” value [1] is reported as “blocked”.

`N[C@H](CCCP(=O)(O)O)C(=O)O` [D-AP5, D-2-amino-5-phosphonovaleric acid] was tested, and the “Effect on remaining inward (excitatory) synaptic currents” value [1] was “blocked”.

For `CC1=C(/C=C/C(C)=C/C=C/C(C)=C/C(=O)O)C(C)(C)CCC1` [RA, retinoic acid], the “RA concentration inducing the highest proportion of HB9+ cells” value [2] was 0.1 to 1.0 µM and the “RA dose resulting in degeneration of some cells” value ([2]; chemically defined adherent cultures) was “over 1.0 μM”.

With `c1ccc2c(Oc3nc(Nc4ccc(N5CCOCC5)cc4)c4ncn(C5CCCCC5)c4n3)cccc2c1` [purmorphamine] the “Expression pattern of class II factors (Nkx6.1, Nkx2.2) compared with SHH” value ([3]; 1 week of purmorphamine treatment) was “almost identical expression pattern”, the “mRNA for Gli1” value ([3]; 1 week of treatment) was “increased levels” and the “Time of treatment until Olig2+ cells first observed” value ([4]; after isolating NE cells (day 22 of hESC differentiation), a few days earlier than SHH/RA) was at most 5 days. For the same compound, the “Olig2+ cells (highest percentage)” value ([4]; purmorphamine 1 μM with RA, 3.5 weeks, confirmed by FACS) was “around 40%”, the “Olig2 expression in progenitors” value ([4]; purmorphamine 0.5, 1 and 2 uM in the presence of RA 0.1 μM, 3.5 weeks) was “robustly induced; also recorded: dose-dependent manner” and the “Induction of Olig2+ or HB9+ cells” value ([4]; purmorphamine alone (without RA) from day 17) was “not sufficient”. The “Expression of Olig2 and HB9” value ([4]; purmorphamine with RA, 4.5 week) was “over 40%”, the “Olig2+ motor neuron progenitors and HB9+ motor neurons of differentiated population” value ([4]; purmorphamine with RA, 4.5 weeks of hESC differentiation) was “at least 80%” and the “HB9+ motor neurons also positive for ChAT” value ([4]; purmorphamine, attachment on coverslips and another week of differentiation) was “most”.

For “EGF: epidermal growth factor (NSDSECPLSHDGYCLHDGVCMYIEALDKYACNCVVGYIGERCQYRDLKWWELR; Epidermal growth factor; UniProt P01133 971-1023, looked up)”, the “BrdU incorporation (stimulation of precursor cell proliferation)” value [5] was “could not be elicited”.

For LIF: leukemia inhibitory factor, the “BrdU incorporation (stimulation of precursor cell proliferation)” value [5] was “could not be elicited”.
